The nature of experiment [1]: Bleaching of tomato stains on cotton swatches (Example 1). The conditions noted are these: detergent wash solution 2 g/l, 1 hour at 30° C. On the procedure:
The potential of the enhancer, Ethanedioic acid, 2-[(4-aminophenyl)sulfonyl)hydrazide-2-phenylhydrazide, to boost the bleach performance of phenol oxidizing enzyme was assessed by washing cotton swatches soiled with tomato stains
Purified phenol oxidizing enzyme from Acremonium murorum was added to the wash solution at 100 mg/l. The enzyme from Acremonium murorum is described in WO-A-00/05349 (Unilever). The enhancer was dosed at 250 μM. The following formulation was used as wash solution (2 g/l): […]
The swatches were washed during 1 hour at 30° C. After the wash, the swatches were tumble-dried and the reflectance spectra were measured using a Minolta spectrometer. The color differences between the swatch before and after the wash data were expressed in the CIELAB L*a*b* color space. In this color space, L* indicates lightness and a* and b* are the chromaticity coordinates. Color differences between two swatches are expressed as ΔE, which is calculated from the following equation:
ΔE={square root over (ΔL^2+Δa^2+Δb^2+L )}
Table 1: Stain bleach performance of the phenol oxidizing enzyme/enhancer system on tomato stains in the presence of different enhancers.

Experiment [2] in a line: Bleaching of tomato stains on cotton swatches (Example 2). The conditions noted are these: enhancer 250 μM + enzyme 20 mg/l; detergent formulation pH 9; 30 minutes at 30 C. The procedure: Stain bleach experiments were performed as in Example 1, except that 20 mg/l enzymes was used. The detergent formulation was set at pH 9, and the swatches washed during 30 minutes at 30 C.
Table 2: Stain bleach performance of the phenol oxidizing enzyme/enhancer system on tomato stains in the presence of the enzymatic bleach system.

`Nc1ccc(S(=O)(=O)NNC(=O)C(=O)NNc2ccccc2)cc1` [enhancer, Ethanedioic acid, 2-[(4-aminophenyl)sulfonyl)hydrazide-2-phenylhydrazide]: the “ΔE (CIELAB colour difference of swatch before and after wash), wash with enzyme and enhancer added” value in experiment [1] (enhancer 250 μM + phenol oxidizing enzyme from Acremonium murorum 100 mg/l) is on record as “ΔE = 11.9”; in experiment [2], “ΔE = 10.6”. For the same compound, the “ΔE (CIELAB colour difference of swatch before and after wash), wash with enhancer only” value in experiment [1] (enhancer 250 μM, no enzyme) is given as “ΔE = 9.1”.

Source of the values: patent publication US6384007B1, “Method and composition for enhancing the activity of an enzyme” (Unilever Home & Personal USA division of Conopco, Inc., priority 1999, dated 2002).
